In one assay the target is T1, Indoleamine 2,3-dioxygenase 1 (Homo sapiens, UniProt P14902). Nature of the assay: Inhibition of human […] by HTS assay.
T1 sequence (P14902 whole entry): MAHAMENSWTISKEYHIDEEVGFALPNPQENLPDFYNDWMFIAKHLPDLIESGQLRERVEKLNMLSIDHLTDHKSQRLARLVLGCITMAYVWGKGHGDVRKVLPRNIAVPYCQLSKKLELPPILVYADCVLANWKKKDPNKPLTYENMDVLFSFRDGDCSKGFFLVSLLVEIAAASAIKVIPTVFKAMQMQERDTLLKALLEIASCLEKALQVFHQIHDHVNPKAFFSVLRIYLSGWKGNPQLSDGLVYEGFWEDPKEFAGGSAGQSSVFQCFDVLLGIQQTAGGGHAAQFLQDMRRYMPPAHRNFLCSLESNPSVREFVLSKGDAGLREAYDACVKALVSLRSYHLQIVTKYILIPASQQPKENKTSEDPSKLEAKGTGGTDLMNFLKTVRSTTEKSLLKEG
Turning to `O=C(CSc1nnc2scc(-c3ccccc3)n12)Nc1ccc(Cl)cc1`, inhibition was half-maximal at 1190 nM (IC50).

The next assay concerns the target T1, Indoleamine 2,3-dioxygenase 1. The assay can be described thus: Inhibition of recombinant full-length N-terminal His-tagged human IDO1 (1 to 403 residues) expressed in Escherichia coli BL21(DE3) cells.
Consider `N#Cc1ccc(NC(=O)NCc2cnc3scc(C#CC4CC4)n23)cc1`, for which the IC50 (in general, the point on the concentration scale where inhibition reaches its midpoint) came to 102 nM. With `O=C(NCc1cnc2scc(C#CC3CC3)n12)Nc1cccc(Cl)c1`, the IC50 was determined as 42 nM. Still for that read-out and setting: the value for `Cc1ccc(CS(=O)(=O)NCc2cnc3scc(-c4ccc(Br)cc4)n23)cc1` was 855 nM; that for `OC(c1cnc2scc(C#CC3CC3)n12)C1CCCCC1` (configuration not stated) was 7150 nM.

Regarding `Brc1ccc(-c2csc3nccn23)cc1`, the IC50 was determined as 380 nM. The same measure, in the same setting: the value for `CC(C)CSc1nnc2scc(-c3ccc(Cl)cc3)n12` was 256 nM. Still for that read-out and setting: the value for `Cc1sc2nccn2c1-c1ccc(Br)cc1` was 3110 nM; that for `N#Cc1ccc(NC(=S)NCc2cnc3scc(C#CC4CC4)n23)cc1` was 16.4 nM. The same measure, in the same setting: the value for `O=S(=O)(Cc1cccc(Cl)c1)NCc1cnc2scc(-c3ccc(Br)cc3)n12` was 744 nM; that for `CCCCNC(=S)NCc1cnc2scc(C#CC3CC3)n12` was 502 nM; that for `O=C(CSc1nnc2scc(-c3ccc(Br)cc3)n12)c1ccc(Br)cc1` was above 10000 nM.

`OC(c1ccccc1)c1cnc2scc(-c3ccc(Br)cc3)n12` (configuration not stated): the IC50 was 1090 nM. Consider `N#Cc1ccc(NC(=O)NCc2cnc3scc(C#CC4CCCC4)n23)cc1`, for which the IC50 is 418 nM. On the same count and under the same terms, the value for `N#Cc1ccc(NC(=O)NCc2cnc3scc(C#Cc4ccsc4)n23)cc1` was 73.9 nM. Still for that read-out and setting: then `O=C(CSc1nnc2scc(C3CCCCC3)n12)c1ccc(Br)cc1`, with above 10000 nM; and `O=C(CSc1nnc2scc(-c3ccc(Cl)cc3)n12)c1ccc(Br)cc1`, with 339 nM; and `S=C(NCc1cnc2scc(C#CC3CC3)n12)Nc1cccc(Cl)c1`, with 27.6 nM. On the same count and under the same terms, then `N#Cc1ccc(NC(=O)NCc2cnc3scc(C#Cc4cccnc4)n23)cc1`, with 3200 nM; and `OC(c1cnc2scc(-c3ccc(Br)cc3)n12)C1CCCCC1` (configuration not stated), with 1280 nM. As to `N#Cc1ccc(NC(=O)NCc2cnc3scc(C#Cc4ccc(Cl)s4)n23)cc1`, the IC50 was determined as 823 nM. With `CCCS(=O)(=O)NCc1cnc2scc(-c3ccc(Br)cc3)n12`, the IC50 turned out to be 1070 nM.

The values above are taken from ChEMBL document CHEMBL4376890, “Unique Sulfur-Aromatic Interactions Contribute to the Binding of Potent Imidazothiazole Indoleamine 2,3-Dioxygenase Inhibitors” (J Med Chem, 2020).
